Our source for the inhibition values is ChEMBL document CHEMBL2007661, “Compounds: GSK PKIS; Assays: UNC Frye lab” (2012).

Several values for one entry are separate records, joined by “and”; a condition that tells them apart may be missing. Identical values can stand only once.

Assay [1] concerns the target T1, Inhibitor of nuclear factor kappa-B kinase subunit alpha (Homo sapiens) (UniProt O15111).
T1 sequence (whole entry): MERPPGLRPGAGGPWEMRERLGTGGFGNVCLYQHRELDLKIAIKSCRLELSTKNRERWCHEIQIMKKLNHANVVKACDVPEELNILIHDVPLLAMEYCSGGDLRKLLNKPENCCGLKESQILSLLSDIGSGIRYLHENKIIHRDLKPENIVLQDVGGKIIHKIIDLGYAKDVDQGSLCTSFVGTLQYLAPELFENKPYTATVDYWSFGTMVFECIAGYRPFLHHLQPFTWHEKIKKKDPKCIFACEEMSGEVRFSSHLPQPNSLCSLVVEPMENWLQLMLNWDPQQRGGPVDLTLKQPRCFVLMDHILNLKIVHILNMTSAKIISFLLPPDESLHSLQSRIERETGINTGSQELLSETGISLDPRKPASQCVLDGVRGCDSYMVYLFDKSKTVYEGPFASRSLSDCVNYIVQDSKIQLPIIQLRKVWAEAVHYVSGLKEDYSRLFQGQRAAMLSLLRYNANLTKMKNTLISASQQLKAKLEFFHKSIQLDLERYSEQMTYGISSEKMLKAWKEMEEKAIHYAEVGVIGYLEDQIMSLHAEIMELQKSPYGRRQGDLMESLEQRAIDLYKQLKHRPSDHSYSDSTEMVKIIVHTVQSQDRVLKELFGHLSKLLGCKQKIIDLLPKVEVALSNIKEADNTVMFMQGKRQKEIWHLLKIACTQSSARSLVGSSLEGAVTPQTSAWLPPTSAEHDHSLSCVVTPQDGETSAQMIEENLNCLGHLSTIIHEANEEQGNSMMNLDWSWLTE
The following applies: at 1 µM.

For assay [2], the target named is T2, Inhibitor of nuclear factor kappa-B kinase subunit epsilon (Homo sapiens) (UniProt Q14164).
T2 sequence (whole entry): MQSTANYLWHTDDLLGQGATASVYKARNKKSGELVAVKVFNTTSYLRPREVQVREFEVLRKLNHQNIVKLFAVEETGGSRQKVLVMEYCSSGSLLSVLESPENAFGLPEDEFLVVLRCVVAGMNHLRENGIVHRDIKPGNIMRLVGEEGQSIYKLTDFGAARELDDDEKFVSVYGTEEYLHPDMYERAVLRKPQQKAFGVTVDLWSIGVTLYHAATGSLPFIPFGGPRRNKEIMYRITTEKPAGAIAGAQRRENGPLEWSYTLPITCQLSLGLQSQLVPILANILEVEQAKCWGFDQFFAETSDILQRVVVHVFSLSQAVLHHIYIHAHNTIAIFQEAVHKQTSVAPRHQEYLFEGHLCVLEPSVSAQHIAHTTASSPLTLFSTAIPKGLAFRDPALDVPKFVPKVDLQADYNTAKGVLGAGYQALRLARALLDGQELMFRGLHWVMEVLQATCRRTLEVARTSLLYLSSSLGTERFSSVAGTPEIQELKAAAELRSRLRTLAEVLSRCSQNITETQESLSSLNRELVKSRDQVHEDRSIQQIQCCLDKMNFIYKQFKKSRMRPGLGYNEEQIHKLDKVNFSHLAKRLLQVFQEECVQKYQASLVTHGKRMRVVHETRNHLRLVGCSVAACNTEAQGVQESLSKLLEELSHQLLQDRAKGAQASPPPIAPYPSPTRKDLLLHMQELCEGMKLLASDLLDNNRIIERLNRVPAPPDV
The following applies: at 1 µM.

As for `CCn1c(-c2nonc2N)nc2cncc(C(=O)NCCNC)c21`, the inhibition in assay [1] was 30%; in assay [2], 13% and 14%.

As to `COc1ccc(CNC(=O)c2ccc(-c3cc(-c4nnc(C)o4)ccc3C)cc2)cc1`, the inhibition in assay [1] was 3% and 7%; in assay [2], -3%.

In the case of `CCS(=O)(=O)c1ccc(OC)c(Nc2ncc(-c3ccccc3Cl)o2)c1`, the inhibition in assay [1] was -3% and 4%; in assay [2] it was 2% and 1%.

On to `Cc1ccc(NC(=O)c2ccnc(N3CCCC3)c2)cc1-c1ccc(C(=O)NCC2CC2)cc1`, for which the inhibition in assay [1] is -8%; in assay [2], 5% and 6%.

In the case of `NS(=O)(=O)c1ccc(NC=C2C(=O)Nc3ccc4ncsc4c32)cc1`, the inhibition in assay [1] was 2% and 6%; in assay [2], 85%.

For the compound `CCn1c(-c2nonc2N)nc2c(C#CC(C)(C)O)nc(O[C@@H](CN)c3ccccc3)cc21`, the inhibition in assay [1] is 17% and 19%; in assay [2], 99% and 98%.

In the case of `C/C(Nc1ccc(S(N)(=O)=O)cc1)=C1/C(=O)Nc2ccccc21`, the inhibition in assay [1] was 2% and 1%; in assay [2] it was 5% and 6%.

For `Cc1ccc(Nc2ccnc(Nc3cccc(C(N)=O)c3)n2)cc1O`, the inhibition in assay [1] is 2%; in assay [2], 26% and 27%.

As to `Fc1ccc(-c2cc(-c3c[nH]nc3-c3ccccn3)ccn2)cc1`, the inhibition in assay [1] is 6%; in assay [2] it was -1%.

Take `COc1ccc2c(-c3ccnc(Nc4cccc(OC(F)(F)F)c4)n3)cnn2n1`: the inhibition is 2% and 1% in assay [1]; 44% and 43% in assay [2].

For the compound `CCn1c(-c2nonc2N)nc2c(C#CC(C)(C)O)nc(CN3CCCC3)cc21`, the inhibition was -7% and 2% in assay [1]; 52% and 51% in assay [2].

In the case of `N#Cc1c(NC(=O)CN2CCOCC2)sc2c1CCCC2`, the inhibition in assay [1] is 0% and 1%; in assay [2], -2%.

In the case of `Cc1nnc(-c2ccc(C)c(-c3ccc(C(=O)NCc4ccc(Cl)cc4)cc3)c2)o1`, the inhibition in assay [1] was 2% and 4%; in assay [2], 2%.

For `COc1cc2ncn(-c3cc(OCc4cccs4)c(C(N)=O)s3)c2cc1OC`, the inhibition is 5% and 3% in assay [1]; 1% in assay [2].

As to `O=C1Nc2ccccc2/C1=C/Nc1ccc(-n2cncn2)cc1`, the inhibition in assay [1] was 4% and 3%; in assay [2], 18%.

As for `COc1cc(N2CCN(C(C)C)CC2)ccc1Nc1nc(Nc2cccc(F)c2C(=O)O)c2cc[nH]c2n1`, the inhibition in assay [1] was 2% and 3%; in assay [2] it was -1% and 0%.

In the case of `NS(=O)(=O)c1cccc(N/C=C2\C(=O)Nc3ccccc32)c1`, the inhibition was 1% and 2% in assay [1]; 22% and 26% in assay [2].

Take `CN(C)c1cc2c(Nc3ccc4c(cnn4Cc4ccccc4)c3)ncnc2cn1`: the inhibition is 1% and 2% in assay [1]; -2% in assay [2].

As to `CC(=O)Nc1cccc(C#Cc2cncnc2Nc2ccc(OCc3cccc(F)c3)c(Cl)c2)c1`, the inhibition is -6% in assay [1]; -7% and -6% in assay [2].

As for `NS(=O)(=O)c1ccc(N/N=C2\C(=O)Nc3ccc(-c4cnco4)cc32)cc1`, the inhibition was -3% in assay [1]; 39% and 41% in assay [2].

In the case of `CCOc1ccc2c(-c3ccnc(Nc4cccc(C(F)(F)F)c4)n3)cnn2n1`, the inhibition in assay [1] is 1%; in assay [2], 45%.

Regarding `ON=C1CCc2cc(-c3nc(C4CCNCC4)[nH]c3-c3ccncc3)ccc21`, the inhibition in assay [1] is -2% and -3%; in assay [2] it was 1% and 4%.

With `O=C1Nc2ccc(C(=O)c3ccco3)cc2C1=Cc1cc(Cl)c(O)c(Cl)c1`, the inhibition is 5% and 4% in assay [1]; 92% and 91% in assay [2].

`COc1ccc(-c2cc3c(N)ncnc3o2)cc1`: the inhibition in assay [1] was 2% and 3%; in assay [2] it was 2% and -2%.

For `Nc1ccc(C#Cc2cncnc2Nc2ccc(OCc3cccc(F)c3)c(Cl)c2)cc1`, the inhibition in assay [1] is 2% and -8%; in assay [2] it was -2% and 0%.

For the compound `NC(=O)c1ccc2c(-c3ccnc(NCCCO)n3)c(-c3ccc(F)cc3)nn2c1`, the inhibition is 1% in assay [1]; 1% and 0% in assay [2].

Turning to `CCn1c(-c2nonc2N)nc2c(C#CC(C)(C)O)nc(OC[C@H](N)c3ccccc3)cc21`, the inhibition is 10% and 11% in assay [1]; 36% and 35% in assay [2].

Take `COc1ccc(-c2nn3ncccc3c2-c2ccnc(Nc3ccc(Cl)c(C(F)(F)F)c3)n2)cc1`: the inhibition in assay [1] is -2% and 3%; in assay [2], -1% and -2%.

Turning to `N#Cc1ccc2c(-c3ccnc(NC4CC4)n3)c(-c3ccc(F)cc3)nn2c1`, the inhibition in assay [1] was 1% and -2%; in assay [2], 1%.

As a reminder, the inhibition is the relative decrease from the control value, in per cent.
